{"source": "ChEMBL document CHEMBL2321823", "about": "“Synthesis of novel analogs of cabergoline: improving cardiovascular safety by removing 5-HT2B receptor agonism” (ACS Med Chem Lett, 2013)", "key": {"5-HT2B receptor [1]": {"biological_target": "T1, 5-HT2B receptor (Homo sapiens, UniProt P41595)", "T1 sequence (P41595 whole entry)": "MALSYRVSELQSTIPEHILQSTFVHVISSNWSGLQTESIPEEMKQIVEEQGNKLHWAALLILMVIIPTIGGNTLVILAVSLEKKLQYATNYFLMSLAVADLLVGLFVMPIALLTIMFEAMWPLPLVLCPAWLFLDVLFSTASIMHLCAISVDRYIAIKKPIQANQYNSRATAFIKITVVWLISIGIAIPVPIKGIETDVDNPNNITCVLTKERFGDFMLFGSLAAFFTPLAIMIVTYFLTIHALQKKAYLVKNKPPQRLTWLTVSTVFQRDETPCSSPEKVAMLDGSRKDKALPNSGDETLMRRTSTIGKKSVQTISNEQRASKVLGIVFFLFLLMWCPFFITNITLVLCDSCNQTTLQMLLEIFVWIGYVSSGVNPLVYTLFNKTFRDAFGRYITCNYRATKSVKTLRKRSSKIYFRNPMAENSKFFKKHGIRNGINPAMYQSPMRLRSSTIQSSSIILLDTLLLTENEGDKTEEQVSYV", "experiment": "(§1) Partial agonist activity at human 5-HT2B receptor expressed in HEK293 cells assessed as intracellular calcium mobilization by FLIPR analysis", "type": "cell-based", "conditions": "HEK293 cells expressing human 5-HT2B receptor; call rule not given here"}, "[2]": {"biological_target": "T2, 5-hydroxytryptamine receptor 2B (Homo sapiens, UniProt P41595)", "T2 sequence (P41595 whole entry)": "as above", "experiment": "Antagonist activity at human 5-HT2B receptor transfected in CHO cell assessed as decrease in 5-HT-induced IP1 production preincubated for 5 mins before 5-HT addition measured after 30 mins by HTRF detection method", "type": "functional, cell-based"}, "[3]": {"biological_target": "T2, 5-hydroxytryptamine receptor 2B", "experiment": "Displacement of [125I](+/-)DOI from human 5-HT2B receptor transfected in CHO cell membrane after 60 mins by scintillation counting analysis", "type": "cell membranes"}, "5-HT2B receptor [4]": {"biological_target": "T1, 5-HT2B receptor", "experiment": "(§2) Agonist activity at human 5-HT2B receptor transfected in CHO cell assessed as IP1 production incubated for 30 mins measured by HTRF detection method", "type": "cell-based", "conditions": "human, CHO cells transfected with human 5-HT2B receptor"}, "[5]": {"biological_target": "T2, 5-hydroxytryptamine receptor 2B", "experiment": "as §2", "type": "cell-based", "conditions": "for Activity: human, cho, 0.5 h"}, "[6]": {"biological_target": "T2, 5-hydroxytryptamine receptor 2B", "experiment": "as §1", "type": "cell-based", "conditions": "hek293"}, "[7]": {"biological_target": "5-hydroxytryptamine receptor 2A (Homo sapiens, UniProt P28223)", "sequence (P28223 whole entry)": "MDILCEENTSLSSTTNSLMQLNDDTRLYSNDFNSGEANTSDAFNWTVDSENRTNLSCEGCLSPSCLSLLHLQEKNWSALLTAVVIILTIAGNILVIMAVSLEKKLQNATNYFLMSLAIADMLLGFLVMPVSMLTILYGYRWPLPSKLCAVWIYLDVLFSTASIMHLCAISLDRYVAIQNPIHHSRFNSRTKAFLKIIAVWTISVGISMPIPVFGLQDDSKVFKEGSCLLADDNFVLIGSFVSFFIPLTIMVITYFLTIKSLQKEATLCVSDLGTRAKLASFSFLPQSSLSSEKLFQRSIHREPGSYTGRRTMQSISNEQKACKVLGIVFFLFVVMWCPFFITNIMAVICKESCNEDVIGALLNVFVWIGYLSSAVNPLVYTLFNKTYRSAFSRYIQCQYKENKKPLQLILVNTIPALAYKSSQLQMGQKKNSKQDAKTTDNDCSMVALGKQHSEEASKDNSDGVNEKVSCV", "experiment": "Antagonist activity at human 5-HT2A receptor assessed as decrease in agonist-induced intracellular calcium mobilization preincubated for 10 mins prior to agonist addition measured by FLIPR analysis", "type": "functional, cell-based"}, "[8]": {"biological_target": "D(2) dopamine receptor (Homo sapiens) (UniProt P14416)", "sequence (P14416 whole entry)": "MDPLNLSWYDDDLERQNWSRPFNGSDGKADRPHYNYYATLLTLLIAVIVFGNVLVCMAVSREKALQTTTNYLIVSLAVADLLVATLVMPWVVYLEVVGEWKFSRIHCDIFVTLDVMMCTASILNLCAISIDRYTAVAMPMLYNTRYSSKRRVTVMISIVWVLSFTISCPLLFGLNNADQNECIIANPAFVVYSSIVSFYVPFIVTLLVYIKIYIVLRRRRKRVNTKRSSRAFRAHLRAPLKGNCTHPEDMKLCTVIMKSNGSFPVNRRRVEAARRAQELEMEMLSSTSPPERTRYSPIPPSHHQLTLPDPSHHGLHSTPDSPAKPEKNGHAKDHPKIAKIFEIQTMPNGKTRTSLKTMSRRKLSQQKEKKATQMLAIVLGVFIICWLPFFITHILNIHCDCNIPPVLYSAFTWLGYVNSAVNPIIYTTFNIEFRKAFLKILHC", "experiment": "Partial agonist activity at human D2 receptor transfected in HTLA cells measured after overnight incubation by luminescence counter analysis", "type": "cell-based"}}}
{"smiles": "CN(C)CCCNC(=O)[C@@H]1C[C@@H]2c3cccc4c3c(cn4C)C[C@H]2N(C)C1", "values": [{"measurement": "Emax", "setting": "5-HT2B receptor [1]", "result": "< 12", "unit": "%"}, {"measurement": "IC50", "setting": "[2]", "result": 37, "unit": "nM"}, {"measurement": "Kb", "setting": "[2]", "result": 9.3, "unit": "nM"}, {"measurement": "Ki", "setting": "[3]", "result": 0.97, "unit": "nM"}, {"measurement": "Emax at 0.5 h", "setting": "5-HT2B receptor [4]", "result": "< 12", "unit": "%"}]}
{"smiles": "C=CCN1C[C@H](C(=O)N(CCCN2CCOCC2)C(=O)NCC)C[C@@H]2c3cccc4[nH]cc(c34)C[C@H]21", "values": [{"measurement": "Ki", "setting": "[3]", "result": 7.1, "unit": "nM"}, {"measurement": "Emax at 0.5 h", "setting": "5-HT2B receptor [4]", "result": 106, "unit": "%"}, {"measurement": "EC50", "setting": "[5]", "result": 13, "unit": "nM"}]}
{"smiles": "COC(OC)[C@@H]1C[C@@H]2c3cccc4c3c(cn4C)C[C@H]2N(C)C1", "values": [{"measurement": "Activity", "setting": "[6]", "result": "Not Active"}, {"measurement": "IC50", "setting": "[2]", "result": 13, "unit": "nM"}, {"measurement": "Kb", "setting": "[2]", "result": 3.3, "unit": "nM"}, {"measurement": "Ki", "setting": "[3]", "result": 0.54, "unit": "nM"}, {"measurement": "Activity", "setting": "[5]", "result": "Not Active"}]}
{"smiles": "CCNC(=O)N(CCCN(C)C)C(=O)[C@@H]1C[C@@H]2c3cccc4c3c(cn4C)C[C@H]2N(C)C1", "values": [{"measurement": "IC50", "setting": "[7]", "result": 11500, "unit": "nM"}, {"measurement": "Activity", "setting": "[6]", "result": "Not Active"}, {"measurement": "IC50", "setting": "[2]", "result": 22, "unit": "nM"}, {"measurement": "Kb", "setting": "[2]", "result": 5.6, "unit": "nM"}, {"measurement": "Ki", "setting": "[3]", "result": 1, "unit": "nM"}, {"measurement": "Emax", "setting": "[8]", "result": 50, "unit": "%"}, {"measurement": "Activity", "setting": "[5]", "result": "Not Active"}]}
{"smiles": "C=CCN1C[C@H](C(=O)N(CCCN(C)C)C(=O)NCC)C[C@@H]2c3cccc4[nH]cc(c34)C[C@H]21", "note": "[CABERGOLINE]", "values": [{"measurement": "Ki", "setting": "[3]", "result": 1.4, "unit": "nM"}, {"measurement": "Emax at 0.5 h", "setting": "5-HT2B receptor [4]", "result": 103, "unit": "%"}, {"measurement": "EC50", "setting": "[5]", "result": 13, "unit": "nM"}]}
